Here are results for 14 compounds from ChEMBL document CHEMBL3259765, “ProTides of N-(3-(5-(2'-deoxyuridine))prop-2-ynyl)octanamide as potential anti-tubercular and anti-viral agents” (Bioorg Med Chem, 2014).

In series [1] the test system is Mycobacterium tuberculosis. Briefly: Antibacterial activity against Mycobacterium tuberculosis H37Rv ATCC 27294 up to 2 weeks by HT-SPOTi assay. The format is functional. Conditions: H37Rv ATCC 27294, 336 h.
Another series has as its system Escherichia coli. The experiment in a line: Antibacterial activity against Escherichia coli DH5[alpha] ATCC 53868 after overnight incubation by HT-SPOTi assay. The format is functional, organism-based.
Series [2] deals with Human alphaherpesvirus 3. Briefly: Antiviral activity against thymidine kinase-positive Varicella zoster virus Oka infected in HEL cells assessed as reduction in viral plaque formation after 5 days. Type of series: functional, organism-based. As to conditions: Human alphaherpesvirus 3, strain Oka vaccine, 120 h.
In series [3] the test system is Human alphaherpesvirus 3. The experiment in a line: Antiviral activity against thymidine kinase-deficient Varicella zoster virus 07-1 infected in HEL cells assessed as reduction in viral plaque formation after 5 days. Type of series: functional, organism-based. Conditions: Human alphaherpesvirus 3, 07-1, HEL, 120 h.
Series [4] concerns Human alphaherpesvirus 1. Briefly: Antiviral activity against thymidine kinase-positive Herpes simplex virus 1 KOS infected in HEL cells assessed as reduction in virus-induced cytopathicity after 3 days. Type of series: functional, organism-based. As to conditions: Human alphaherpesvirus 1, KOS, 72 h. Background: Damage to the host cells serves as the signal in cytopathic effect assays.

The subject of series [5] is Human alphaherpesvirus 1. Briefly: Antiviral activity against thymidine kinase-deficient ACV-resistant Herpes simplex virus 1 B-2006 infected in HEL cells assessed as reduction in virus-induced cytopathicity after 3 days. The format is functional, organism-based. As to conditions: Human alphaherpesvirus 1, B-2006, HEL, 72 h.
The next series deals with Human alphaherpesvirus 2. Briefly: Antiviral activity against Herpes simplex virus 2 G infected in HEL cells assessed as reduction in virus-induced cytopathicity after 3 days. The format is functional, organism-based. As to conditions: Human alphaherpesvirus 2, strain G, 72 h.
Series [6] is described as follows: Cytotoxicity against HEL cells assessed as reduction in cell growth after 3 to 5 days by Coulter counting analysis. The format is cell-based. As to conditions: human.
Series [7] can be described thus: Cytotoxicity against HEL cells assessed as morphological changes after 3 to 5 days […]. Type of series: cell-based. Conditions: human.
Series [8] concerns Human betaherpesvirus 5. Briefly: Antiviral activity against Human cytomegalovirus Davis infected in HEL cells assessed as reduction in virus-induced cytopathicity after 7 days. Type of series: functional, organism-based.
Series [9] deals with Human betaherpesvirus 5. The experiment in a line: Antiviral activity against Human cytomegalovirus AD169 infected in HEL cells assessed as reduction in virus-induced cytopathicity after 7 days. The format is functional, organism-based.
For another series, the system named is Vaccinia virus. Briefly: Antiviral activity against Vaccinia virus infected in HEL cells assessed as reduction in virus-induced cytopathicity after 3 days. The format is functional, organism-based. Conditions: Orthopoxvirus vaccinia.

In brackets after ≈: the same amount, converted by molar mass. Activity calls are given as the source filed them. No cut-off for these calls is given here.

The term MIC denotes the lowest concentration that inhibits growth of the organism. Read a low MIC as inhibition by little substance. A word on the EC50: it is the concentration at which the effect is half-maximal. In general, CC50 refers to the concentration at which the toxic effect on the cells reaches its halfway point.

Regarding `CCCCCCCC(=O)NCC#Cc1cn([C@H]2C[C@H](O)[C@@H](COP(=O)(N[C@@H](C)C(=O)OCc3ccccc3)Oc3ccccc3)O2)c(=O)[nH]c1=O` (stereo not given in full), the lowest concentration to inhibit growth in series [1] (MIC) was 125 µg/mL (≈ 172 µM). Moreover, the result in the series on Escherichia coli, with Human betaherpesvirus 5 [8], in the series with Human betaherpesvirus 5 [9] and with Vaccinia virus was inactive. Also, the concentration for a half-maximal effect (EC50) is 2 µM with Human alphaherpesvirus 3 [2]; above 20 µM in the series with Human alphaherpesvirus 3 [3]; 2 µM in the series with Human alphaherpesvirus 1 [4]; above 100 µM in the series on Human alphaherpesvirus 1 [5]; 4 µM with Human alphaherpesvirus 2. Moreover, the CC50 in series [6] is 48 µM. Besides, the MCC in series [7] is above 100 µM.
With `CCCCCCCC(=O)NCC#Cc1cn([C@H]2C[C@H](O)[C@@H](COP(=O)(N[C@@H](C)C(=O)OCC)Oc3ccccc3)O2)c(=O)[nH]c1=O` (stereo not given in full), in series [1], the minimum inhibitory concentration (MIC) worked out at 250 µg/mL (≈ 377 µM). The result in the series with Escherichia coli was inactive.
In turn, `CCCCCCCC(=O)NCC#Cc1cn([C@H]2C[C@H](O)[C@@H](COP(=O)(N[C@H](C)C(=O)OCc3ccccc3)Oc3ccccc3)O2)c(=O)[nH]c1=O` (stereo not given in full) displayed an MIC in [1] of 125 µg/mL (≈ 172 µM). For the same compound, the outcome in the series with Escherichia coli was inactive.
The compound `CCCCCCCC(=O)NCC#Cc1cn([C@H]2C[C@H](O)[C@@H](COP(=O)(N[C@@H](C)C(=O)OC)Oc3ccccc3)O2)c(=O)[nH]c1=O` (stereo not given in full) displayed an MIC in series [1] above 250 µg/mL. Moreover, the result in the series with Escherichia coli was inactive.
In the case of `CCCCCCCC(=O)NCC#Cc1cn([C@H]2C[C@H](O)[C@@H](COP(=O)(N[C@@H](C)C(=O)OCc3ccccc3)Oc3cccc4ccccc34)O2)c(=O)[nH]c1=O` (stereo not given in full), the MIC in series [1] was 250 µg/mL (≈ 323 µM). For the same compound, the result with Escherichia coli, in the series with Human betaherpesvirus 5 [8], in the series on Human betaherpesvirus 5 [9] and in the series with Vaccinia virus was inactive. The EC50 is 8.6 µM with Human alphaherpesvirus 3 [2]; above 20 µM with Human alphaherpesvirus 3 [3]; above 100 µM in the series on Human alphaherpesvirus 1 [4]; above 100 µM with Human alphaherpesvirus 1 [5]; above 100 µM with Human alphaherpesvirus 2. Further, the CC50 in series [6] came out at 39 µM. Besides, the MCC in series [7] is above 100 µM.
As for `CCCCCCCC(=O)NCC#Cc1cn([C@H]2C[C@H](O)[C@@H](COP(=O)(NC(C)(C)C(=O)OCc3ccccc3)Oc3ccccc3)O2)c(=O)[nH]c1=O` (stereo not given in full), the MIC in series [1] is above 125 µg/mL. Besides, the result in the series with Escherichia coli was inactive.
As to `Nc1nc2c(ncn2COCCO)c(=O)[nH]1` [ACYCLOVIR], the EC50 came to 2.6 µM in the series on Human alphaherpesvirus 3 [2], 140 µM in the series on Human alphaherpesvirus 3 [3] and 0.1 µM with Human alphaherpesvirus 2. Further, in [6], the CC50 came to 440 µM. In addition, in [7], the MCC was above 440 µM.
In turn, `CCCCCCCC(=O)NCC#Cc1cn([C@H]2C[C@H](O)[C@@H](COP(=O)(N[C@@H](C)C(=O)OCC)Oc3cccc4ccccc34)O2)c(=O)[nH]c1=O` (stereo not given in full) displayed an MIC in series [1] of 125 µg/mL (≈ 175 µM). In addition, the result with Escherichia coli was inactive.
In [1], `CCCCCCCC(=O)NCC#Cc1cn([C@H]2C[C@H](O)[C@@H](CO)O2)c(=O)[nH]c1=O` showed an MIC above 250 µg/mL. Also, the result with Escherichia coli, with Human betaherpesvirus 5 [8], with Human betaherpesvirus 5 [9] and with Vaccinia virus was inactive. For the same compound, the concentration giving a half-maximal response (EC50) in the series on Human alphaherpesvirus 3 [2], with Human alphaherpesvirus 3 [3], with Human alphaherpesvirus 1 [4], in the series on Human alphaherpesvirus 1 [5] and in the series on Human alphaherpesvirus 2 was above 100 µM each time. In series [6], the CC50 was above 100 µM.
In turn, `CCCCCCCC(=O)NCC#Cc1cn([C@H]2C[C@H](O)[C@@H](COP(=O)(N[C@H](C(=O)OCc3ccccc3)C(C)C)Oc3ccccc3)O2)c(=O)[nH]c1=O` (stereo not given in full) yielded an MIC in series [1] of 31.2 µg/mL (≈ 41.5 µM). Moreover, in the series on Escherichia coli, the result was inactive.
`CCCCCCCC(=O)NCC#Cc1cn([C@H]2C[C@H](O)[C@@H](COP(=O)(N[C@@H](C)C(=O)OCC(C)C)Oc3cccc4ccccc34)O2)c(=O)[nH]c1=O` (stereo not given in full) showed an MIC in [1] of 62.5 µg/mL (≈ 84.4 µM). In addition, the outcome with Escherichia coli, in the series with Human betaherpesvirus 5 [8], with Human betaherpesvirus 5 [9] and in the series with Vaccinia virus was inactive. The EC50 with Human alphaherpesvirus 3 [2] is 20 µM; in the series on Human alphaherpesvirus 3 [3], above 20 µM; in the series on Human alphaherpesvirus 1 [4], above 100 µM; with Human alphaherpesvirus 1 [5] it was above 100 µM; in the series on Human alphaherpesvirus 2, above 100 µM. Also, the CC50 in [6] was found to be 15 µM. Moreover, in series [7], the MCC is above 100 µM.
`CCCCCCCC(=O)NCC#Cc1cn([C@H]2C[C@H](O)[C@@H](COP(=O)(N[C@@H](C)C(=O)OCCC)Oc3ccccc3)O2)c(=O)[nH]c1=O` (stereo not given in full): 125 µg/mL (≈ 185 µM) was the least that counted as inhibitory in series [1] (MIC). In the series on Escherichia coli, the result was inactive.
In series [1], `CCCCCCCC(=O)NCC#Cc1cn([C@H]2C[C@H](O)[C@@H](COP(=O)(NCC(=O)OCc3ccccc3)Oc3ccccc3)O2)c(=O)[nH]c1=O` (stereo not given in full) had an MIC above 250 µg/mL. Besides, the result in the series on Escherichia coli was inactive.
On to `CCCCCCCC(=O)NCC#Cc1cn([C@H]2C[C@H](O)[C@@H](COP(=O)(N[C@@H](C)C(=O)OC)Oc3cccc4ccccc34)O2)c(=O)[nH]c1=O` (stereo not given in full), for which the MIC in series [1] was determined as 62.5 µg/mL (≈ 89.5 µM). Further, the outcome in the series on Escherichia coli, in the series with Human betaherpesvirus 5 [8], in the series on Human betaherpesvirus 5 [9] and in the series with Vaccinia virus was inactive. The EC50 with Human alphaherpesvirus 3 [2] was 37 µM; in the series with Human alphaherpesvirus 3 [3], 46 µM; in the series on Human alphaherpesvirus 1 [4], above 100 µM; in the series on Human alphaherpesvirus 1 [5], above 100 µM; with Human alphaherpesvirus 2 it was above 100 µM. In addition, the CC50 in series [6] turned out to be 64 µM. In addition, the MCC in series [7] is above 100 µM.
